Experimental data reported in patent publication US11292767B2, “Heterocyclic inhibitors of MCT4” (Vettore, LLC, priority 2016, dated 2022).

Legend:
Type in all cases: in vitro ADME
[1] = Metabolic stability in mouse liver microsomes (in vitro t1/2); settings: mouse liver microsomes 0.5 mg/mL, 2 μM compound, % remaining at 60 min
Experimental: (§1) Metabolic Stability Assays The following are assays that may be used to evaluate the metabolic stability of compounds of Formula (I) in human, rat, or mouse microsomes. The assays follow a common procedure recited below. 1. […] Two separated experiments were performed as follows. a) With NADPH: 10 μL of 20 mg/mL liver microsomes and 40 μL of 10 mM NADPH were added to the incubations. […] The final concentration of microsomes was 0.5 mg/mL. 3. The reaction was started with the addition of 4 μL of 200 μM control compound or test compound solutions. Verapamil was used as positive control in this study. The final concentration of test compound or control compound was 2 μM. 4. Aliquots of 50 μL were taken from the reaction solution at 0, 15, 30, 45 and 60 min. […] Samples were centrifuged at 3,220 g for 40 minutes. A 90 μL aliquot of the supernatant was mixed with 90 μL of ultra-pure H2O and then used for LC-MS/MS analysis. 5. Data analysis. All calculations were carried out using Microsoft Excel. Peak areas were determined from extracted ion chromatograms. The slope value, k, was determined by linear regression of the natural logarithm of the remaining percentage of the parent drug vs. incubation time curve. The in vitro half-life (in vitro t1/2) was determined from the slope value: in vitro t1/2=−(0.693)/k.

[2] = Metabolic stability in human liver microsomes (in vitro t1/2); settings: human liver microsomes 0.5 mg/mL, 2 μM compound, % remaining at 60 min
Experimental: as §1

[3] = Metabolic stability in rat liver microsomes (in vitro t1/2); settings: rat liver microsomes 0.5 mg/mL, 2 μM compound; for Rat microsome % 60 min: % remaining at 60 min
Experimental: as §1

Row | SMILES | Mouse microsome % 60 min [1] [%] | Human microsome % 60 min [2] [%] | Rat microsome % 60 min [3] [%] | Rat microsome t1/2, min ([3]; in vitro t1/2)
1 | CC(C)COc1cccc(-c2cc(COC(C)(C)C(=O)O)nn2Cc2ccccc2Cl)c1 [Example 27, 2-([1-[(2-Chlorophenyl)methyl]-5-(3-(2-methylpropoxy)phenyl)1H-pyrazol-3-yl]methoxy)-2-methylpropanoic acid] | 50 | 43 | – | –
2 | CC(C)Oc1cccc(-c2cc(COC(C)(C)C(=O)O)nn2Cc2ccccc2Cl)c1 [Example 35, 2-([1-[(2-Chlorophenyl)methyl]-5-(3-isopropoxyphenyl)1H-pyrazol-3-yl]methoxy)-2-methylpropanoic acid] | 31 | 67 | – | –
3 | COc1cccc(-c2cc(COC(C)(C)C(=O)O)nn2Cc2ccccc2OC)c1 [Example 36, 2-([5-(3-Methoxyphenyl)-1-[(2-methoxyphenyl)methyl]1H-pyrazol-3-yl]methoxy)-2-methylpropanoic acid] | 99 | 85 | – | –
4 | COc1cccc(-c2cc(COC(C)(C)C(=O)O)nn2Cc2ccccc2N(C)C)c1 [Example 38, 2-([1-[[2-(Dimethylamino)phenyl]methyl]-5-(3-methoxyphenyl)1H-pyrazol-3-yl]methoxy)-2-methylpropanoic acid] | 61 | 56 | – | –
5 | CC(C)(OCc1cc(-c2cccc(OC3CC3)c2)n(Cc2ccccc2Cl)n1)C(=O)O [Example 39, 2-([1-[(2-Chlorophenyl)methyl]-5-[3-(cyclopropoxy)phenyl]1H-pyrazol-3-yl]methoxy)-2-methylpropanoic acid] | 88 | 89 | – | –
6 | COc1cccc(-c2c(C)c(COC(C)(C)C(=O)O)nn2Cc2ccccc2Cl)c1 [Example 54, 2-({1-[(2-Chlorophenyl)methyl]-5-(3-methoxyphenyl)-4-methyl-1H-pyrazol-3-yl}methoxy)-2-methylpropionic acid] | 95 | 59 | – | –
7 | COc1ccc(-c2cc(COC(C)(C)C(=O)O)nn2Cc2ccccc2Cl)s1 [Example 64, 2-([1-[(2-Chlorophenyl)methyl]-5-(5-methoxythien-2-yl)-1H-pyrazol-3-yl]methoxy)-2-methylpropanoic acid] | 84 | 82 | – | –
8 | COc1csc(-c2cc(COC(C)(C)C(=O)O)nn2Cc2ccccc2Cl)c1 [Example 65, 2-([1-[(2-Chlorophenyl)methyl]-5-(4-methoxythien-2-yl)-1H-pyrazol-3-yl]methoxy)-2-methylpropanoic acid] | 92 | 78 | – | –
9 | COc1cc(-c2cc(COC(C)(C)C(=O)O)nn2Cc2ccccc2Cl)cs1 [Example 66, 2-([1-[(2-chlorophenyl)methyl]-5-(5-methoxythien-3-yl)-1H-pyrazol-3-yl]methoxy)-2-methylpropanoic acid] | 83 | 73 | – | –
10 | CCC(C)(OCc1cc(-c2cccc(OC)c2)n(Cc2ccccc2Cl)n1)C(=O)O (stereo not drawn) [Example 68, 2-([1-[(2-Chlorophenyl)methyl]-5-(3-methoxyphenyl)-1H-pyrazol-3-yl]methoxy)-2-methylbutanoic acid] | 91 | 95 | – | –
11 | CC[C@](C)(OCc1cc(-c2cccc(OC)c2)n(Cc2ccccc2Cl)n1)C(=O)O [Example 120, (2S)-2-([1-[(2-chlorophenyl)methyl]-5-(3-methoxyphenyl)-1H-pyrazol-3-yl]methoxy)-2-methylbutanoic Acid] | – | 81 | 44 | –
12 | CC[C@@](C)(OCc1cc(-c2cccc(OC)c2)n(Cc2ccccc2Cl)n1)C(=O)O [Example 121, (2R)-2-([1-[(2-chlorophenyl)methyl]-5-(3-methoxyphenyl)-1H-pyrazol-3-yl]methoxy)-2-methylbutanoic Acid] | 81 | 82 | 61 | –
13 | CC(C)COc1ncc(-c2cc(COC(C)(C)C(=O)O)nn2Cc2ccccc2Cl)s1 [Example 132, 2-([1-[(2-Chlorophenyl)methyl]-5-[2-(2-methylpropoxy)-1,3-thiazol-5-yl]-1H-pyrazol-3-yl]methoxy)-2-methylpropanoic acid] | 64 | 70 | 70 | –
14 | CC(C)Oc1ncc(-c2cc(COC(C)(C)C(=O)O)nn2Cc2ccccc2Cl)s1 [Example 133, 2-([1-[(2-Chlorophenyl)methyl]-5-[2-(propan-2-yloxy)-1,3-thiazol-5-yl]-1H-pyrazol-3-yl]methoxy)-2-methylpropanoic acid] | 90 | 97 | 91 | –
15 | CC(C)Cc1ncc(-c2cc(COC(C)(C)C(=O)O)nn2Cc2ccccc2Cl)o1 [Example 134, 2-([1-[(2-Chlorophenyl)methyl]-5-[2-(2-methylpropyl)-1,3-oxazol-5-yl]-1H-pyrazol-3-yl]methoxy)-2-methylpropanoic acid] | 72 | 80 | 85 | –
16 | COc1cccc(-c2cc(COC(C)(C)C(=O)O)nn2Cc2ccccc2OC(C)C)c1 [Example 140, 2-([5-(3-Methoxyphenyl)-1-[[2-(propan-2-yloxy)phenyl]methyl]-1H-pyrazol-3-yl]methoxy)-2-methylpropanoic acid] | 62 | 67 | 48 | –
17 | CC(C)(C)COc1cccc(-c2cc(COC(C)(C)C(=O)O)nn2-c2ccccc2N2CCC2)c1 [Example 155, 2-([1-[2-(Azetidin-1-yl)phenyl]-5-[3-(2,2-dimethylpropoxy)phenyl]-1H-pyrazol-3-yl]methoxy)-2-methylpropanoic acid] | 37 | 62 | 70 | –
18 | CCn1ncc2ccc(-c3cc(COC(C)(C)C(=O)O)nn3-c3ccccc3Cl)cc21 [Example 157, 2-([1-(2-chlorophenyl)-5-(1-ethyl-1H-indazol-6-yl)-1H-pyrazol-3-yl]methoxy)-2-methylpropanoic acid] | – | 78 | 97 | –
19 | Cn1ncc2cccc(-n3nc(COC(C)(C)C(=O)O)cc3-c3cccc(OC4CCC4)c3)c21 [Example 166, 2-([5-(3-Cyclobutoxyphenyl)-1-(1-methyl-1H-indazol-7-yl)-1H-pyrazol-3-yl]methoxy)-2-methylpropanoic acid] | 82 | 94 | – | ∞
20 | Cn1ncc2cccc(-n3nc(COC(C)(C)C(=O)O)cc3-c3cccc(OCC4CCC4)c3)c21 [Example 168, 2-([5-[3-(cyclobutylmethoxy)phenyl]-1-(1-methyl-1H-indazol-7-yl)-1H-pyrazol-3-yl]methoxy)-2-methylpropanoic acid] | 81 | 78 | 81 | –
21 | CC(C)(C)COc1cccc(-c2cc(COC(C)(C)C(=O)O)nn2-c2ccccc2Cl)c1 [Example 177, 2-([1-(2-chlorophenyl)-5-[3-(2,2-dimethylpropoxy)phenyl]-1H-pyrazol-3-yl]methoxy)-2-methylpropanoic acid] | 87 | 75 | 90 | –
22 | CC(C)(OCc1cc(-c2cccc(OCC3CCC3)c2)n(-c2ccccc2Cl)n1)C(=O)O [Example 178, 2-([1-(2-Chlorophenyl)-5-[3-(Cyclobutylmethoxy)phenyl]-1H-pyrazol-3-yl]methoxy)-2-methylpropanoic acid] | 70 | 66 | 72 | –
23 | CC(C)(OCc1cc(-c2cccc(OC3CC3)c2)n(-c2ccc(F)cc2N2CCC2)n1)C(=O)O [Example 183, 2-([1-[2-(Azetidin-1-yl)-4-fluorophenyl]-5-(3-cyclopropoxyphenyl)-1H-pyrazol-3-yl]methoxy)-2-methylpropanoic acid] | 73 | 66 | 71 | –
